From patent publication US20240246952A1, “SMALL MOLECULE MODULATORS OF GLUCOCEREBROSIDASE ACTIVITY AND USES THEREOF” (Vanqua Bio, Inc., priority 2021, published 2024)
pEC50: −log10 of the molar value.

molecular target: T1, GCase (Homo sapiens, UniProt P04062); assay: activation of GCase in a live cell PFB assay in HELA cells; format: cell-based
T1 construct: endogenous in cells; host or cells: HeLa cells
T1 sequence (P04062 40-536): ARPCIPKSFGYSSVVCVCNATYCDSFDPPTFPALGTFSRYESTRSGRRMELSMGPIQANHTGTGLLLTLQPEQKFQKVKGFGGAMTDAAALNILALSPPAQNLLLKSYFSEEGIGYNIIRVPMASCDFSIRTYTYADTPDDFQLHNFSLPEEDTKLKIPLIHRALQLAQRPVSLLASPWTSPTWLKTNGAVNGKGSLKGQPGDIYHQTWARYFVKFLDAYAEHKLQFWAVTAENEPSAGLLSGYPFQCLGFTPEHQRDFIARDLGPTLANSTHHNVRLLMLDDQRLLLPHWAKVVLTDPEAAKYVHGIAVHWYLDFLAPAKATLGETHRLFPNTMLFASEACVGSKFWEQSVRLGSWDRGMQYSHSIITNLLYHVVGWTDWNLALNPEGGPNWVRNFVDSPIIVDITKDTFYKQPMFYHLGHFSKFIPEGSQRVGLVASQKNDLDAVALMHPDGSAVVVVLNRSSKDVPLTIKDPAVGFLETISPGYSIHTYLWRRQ
Method: Exemplary compounds were evaluated for activation of GCase in a live cell PFB assay in HELA cells (essentially as described in Ysselstein et al., “LRRK2 kinase activity regulates lysosomal glucocerebrosidase in neurons derived from Parkinson's disease patients” Nature Communications (2019) 10:5570).

Row | Structure (SMILES) | pEC50
1 | c1ccc(-c2nnc(C3CCCN(c4cncc(-c5nncs5)n4)C3)s2)cc1 (centres unmarked) [Compound 1, 2-[3-(5-phenyl-1,3,4-thiadiazol-2-yl)piperidin-1-yl]-6-(1,3,4-thiadiazol-2-yl)pyrazine] | 4.30 to 5.00
2 | FC(F)Cn1ncc2ncc(N3CCCC(c4nnc(-c5cccc(C(F)(F)F)n5)s4)C3)nc21 (centres unmarked) [Compound 2, 2-(5-{1-[1-(2,2-difluoroethyl)pyrazolo[3,4-b]pyrazin-6-yl]piperidin-3-yl}-1,3,4-thiadiazol-2-yl)-6-(trifluoromethyl)pyridine] | 4.30 to 5.00
3 | CCn1ccc2ncc(N3CCCC(c4nnc(-c5ccccc5)s4)C3)nc21 (centres unmarked) [Compound 3, 2-(1-(5-ethyl-5H-pyrrolo[2,3-b]pyrazin-3-yl)piperidin-3-yl)-5-phenyl-1,3,4-thiadiazole] | 4.30 to 5.00
4 | Fc1ccccc1-c1nnc(C2CCCN(c3cnc4ccccc4n3)C2)s1 (centres unmarked) [Compound 4, 2-(2-fluorophenyl)-5-(1-(quinoxalin-2-yl)piperidin-3-yl)-1,3,4-thiadiazole] | 4.30 to 5.00
5 | FC(F)Cn1ncc2ncc(N3CCCC(c4nnc(-c5ccnc(C(F)(F)F)c5)s4)C3)nc21 (centres unmarked) [Compound 5, 2-(1-(1-(2,2-difluoroethyl)-1H-pyrazolo[3,4-b]pyrazin-6-yl)piperidin-3-yl)-5-(2-(trifluoromethyl)pyridin-4-yl)-1,3,4-thiadiazole] | > 5.00
6 | FC(F)(F)Cn1ncc2ncc(N3CCCC(F)(c4nnc(-c5cccc(C(F)(F)F)n5)s4)C3)nc21 (centres unmarked) [Compound 6, 2-(3-Fluoro-1-(1-(2,2,2-trifluoroethyl)-1H-pyrazolo[3,4-b]pyrazin-6-yl)piperidin-3-yl)-5-(6-(trifluoromethyl)pyridin-2-yl)-1,3,4-thiadiazole] | 4.30 to 5.00
7 | FC(F)Cn1ncc2ncc(N3CCCC(c4nnc(-c5cccnc5C(F)(F)F)s4)C3)nc21 (centres unmarked) [Compound 7, 2-(1-(1-(2,2-Difluoroethyl)-1H-pyrazolo[3,4-b]pyrazin-6-yl)piperidin-3-yl)-5-(2-(trifluoromethyl)pyridin-3-yl)-1,3,4-thiadiazole] | 4.30 to 5.00
8 | FC(F)(F)c1cccc(-c2nnc(C3(F)CCCN(c4cncc(-c5nncs5)n4)C3)s2)n1 (centres unmarked) [Compound 8, 2-(3-Fluoro-3-{5-[6-(trifluoromethyl)pyridin-2-yl]-1,3,4-thiadiazol-2-yl}piperidin-1-yl)-6-(1,3,4-thiadiazol-2-yl)pyrazine] | 4.30 to 5.00
9 | O=C(c1ccc2cc[nH]c2c1)N1CCCC(c2nnc(-c3ccccc3C(F)(F)F)s2)C1 (centres unmarked) [Compound 9, (1H-Indol-6-yl)(3-(5-(2-(trifluoromethyl)phenyl)-1,3,4-thiadiazol-2-yl)piperidin-1-yl)methanone] | 4.30 to 5.00
10 | Fc1ccccc1-c1nnc(C2CCCN(c3ncc4ccccc4n3)C2)s1 (centres unmarked) [Compound 10, 2-(2-Fluorophenyl)-5-(1-(quinazolin-2-yl)piperidin-3-yl)-1,3,4-thiadiazole] | 4.30 to 5.00
11 | c1ccc(-c2nnc(C3CCCN(c4cnc5ccccc5n4)C3)s2)cc1 (centres unmarked) [Compound 11, 2-Phenyl-5-(1-(quinoxalin-2-yl)piperidin-3-yl)-1,3,4-thiadiazole] | 4.30 to 5.00
12 | O=C(c1ccc2cc[nH]c2c1)N1CCCC(c2nnc(-c3ccccc3)s2)C1 (centres unmarked) [Compound 12, (1H-Indol-6-yl)(3-(5-phenyl-1,3,4-thiadiazol-2-yl)piperidin-1-yl)methanone] | 4.30 to 5.00
13 | FC(F)(F)c1cccc(-c2nnc(C3(F)CCCN(c4cnc5ccccc5n4)C3)s2)n1 (centres unmarked) [Compound 13, 2-(3-Fluoro-3-{5-[6-(trifluoromethyl)pyridin-2-yl]-1,3,4-thiadiazol-2-yl}piperidin-1-yl)quinoxaline] | 4.30 to 5.00
14 | c1ccc(-c2nnc(C3CCCN(c4ncc5ccccc5n4)C3)s2)cc1 (centres unmarked) [Compound 14, 2-Phenyl-5-(1-(quinazolin-2-yl)piperidin-3-yl)-1,3,4-thiadiazole] | 4.30 to 5.00

Continued, values first:

Row | pEC50 | Structure (SMILES)
15 | 4.00 to 4.30 | CCn1ncc2ncc(N3CCCC(c4nnc(-c5ccccc5)s4)C3)nc21 (centres unmarked) [Compound 15, 2-(1-(1-Ethyl-1H-pyrazolo[3,4-b]pyrazin-6-yl)piperidin-3-yl)-5-phenyl-1,3,4-thiadiazole]
16 | < 4.00 | Cc1nnc(C2CCCN(c3ncc4ccccc4n3)C2)s1 (centres unmarked) [Compound 16, 2-methyl-5-(1-(quinazolin-2-yl)piperidin-3-yl)-1,3,4-thiadiazole]
17 | 4.30 to 5.00 | O=C(c1ccc2cc[nH]c2c1)N1CCCC(c2nnc(-c3cccnc3C(F)(F)F)s2)C1 (centres unmarked) [Compound 17, (1H-Indol-6-yl)(3-(5-(2-(trifluoromethyl)pyridin-3-yl)-1,3,4-thiadiazol-2-yl)piperidin-1-yl)methanone]
18 | 4.30 to 5.00 | COc1ncncc1-c1nnc(C2CCCN(c3cnc4ccccc4n3)C2)s1 (centres unmarked) [Compound 18, 2-(4-Methoxypyrimidin-5-yl)-5-(1-(quinoxalin-2-yl)piperidin-3-yl)-1,3,4-thiadiazole]
19 | > 5.00 | FC(F)Cn1ncc2ncc(N3CCCC(c4nnc(-c5ccccc5)s4)C3)nc21 (centres unmarked) [Compound 19, 2-(1-(1-(2,2-Difluoroethyl)-1H-pyrazolo[3,4-b]pyrazin-6-yl)piperidin-3-yl)-5-phenyl-1,3,4-thiadiazole]
20 | > 5.00 | CCn1cnc2ncc(N3CCCC(c4nnc(-c5ccccc5)s4)C3)nc21 (centres unmarked) [Compound 20, 2-(1-(1-Ethyl-1H-imidazo[4,5-b]pyrazin-6-yl)piperidin-3-yl)-5-phenyl-1,3,4-thiadiazole]
21 | > 5.00 | FC(F)Cn1ncc2ncc(N3CCCC(c4nnc(-c5ccc(C(F)(F)F)nc5)s4)C3)nc21 (centres unmarked) [Compound 21, 2-(1-(1-(2,2-Difluoroethyl)-1H-pyrazolo[3,4-b]pyrazin-6-yl)piperidin-3-yl)-5-(6-(trifluoromethyl)pyridin-3-yl)-1,3,4-thiadiazole]
22 | > 5.00 | FC(F)(F)Oc1ccccc1-c1nnc(C2CCCN(c3cncc(-c4nncs4)n3)C2)s1 (centres unmarked) [Compound 22, 2-(1-(6-(1,3,4-thiadiazol-2-yl)pyrazin-2-yl)piperidin-3-yl)-5-(2-(trifluoromethoxy)phenyl)-1,3,4-thiadiazole]
23 | < 4.00 | FC(F)Cn1ncc2ncc(N3C[C@@H]4[C@H](C3)[C@H]4c3nnc(-c4cccnc4C(F)(F)F)s3)nc21 [Compound 23, 2-((1R,5S,6r)-3-(1-(2,2-Difluoroethyl)-1H-pyrazolo[3,4-b]pyrazin-6-yl)-3-azabicyclo[3.1.0]hexan-6-yl)-5-(2-(trifluoromethyl)pyridin-3-yl)-1,3,4-thiadiazole]
24 | < 4.00 | FC(F)(F)c1cccc(-c2nnc(C3(F)CCCN(c4cnc5cnn(C6COC6)c5n4)C3)s2)n1 (centres unmarked) [Compound 24, 2-(3-fluoro-1-(1-(oxetan-3-yl)-1H-pyrazolo[3,4-b]pyrazin-6-yl)piperidin-3-yl)-5-(6-(trifluoromethyl)pyridin-2-yl)-1,3,4-thiadiazole]
25 | 4.30 to 5.00 | O=C(c1ccc2ccn(CC3COC3)c2c1)N1CCCC(F)(c2nnc(-c3cccc(C(F)(F)F)n3)s2)C1 (centres unmarked) [Compound 25, (3-Fluoro-3-(5-(6-(trifluoromethyl)pyridin-2-yl)-1,3,4-thiadiazol-2-yl)piperidin-1-yl)(1-(oxetan-3-ylmethyl)-1H-indol-6-yl)methanone]
26 | 4.30 to 5.00 | O=C(c1ccc2ccn(C3COC3)c2c1)N1CCCC(F)(c2nnc(-c3cccc(C(F)(F)F)n3)s2)C1 (centres unmarked) [Compound 26, (3-Fluoro-3-(5-(6-(trifluoromethyl)pyridin-2-yl)-1,3,4-thiadiazol-2-yl)piperidin-1-yl)(1-(oxetan-3-yl)-1H-indol-6-yl)methanone]
27 | > 5.00 | FC(F)(F)c1cccc(-c2nnc(C3(F)CCCN(c4cnc5cnn(CC6COC6)c5n4)C3)s2)n1 (centres unmarked) [Compound 27, 2-(3-Fluoro-1-(1-(oxetan-3-ylmethyl)-1H-pyrazolo[3,4-b]pyrazin-6-yl)piperidin-3-yl)-5-(6-(trifluoromethyl)pyridin-2-yl)-1,3,4-thiadiazole]
28 | 4.30 to 5.00 | FC(F)Cn1ncc2ncc(N3C[C@@H]4[C@H](C3)[C@H]4c3nnc(-c4ccccc4)s3)nc21 [Compound 28, 2-((1R,5S,6R)-3-(1-(2,2-Difluoroethyl)-1H-pyrazolo[3,4-b]pyrazin-6-yl)-3-azabicyclo[3.1.0]hexan-6-yl)-5-phenyl-1,3,4-thiadiazole]
29 | 4.30 to 5.00 | FC(F)(F)Oc1ccccc1-c1nnc(C2(F)CCCN(c3cncc(-c4nncs4)n3)C2)s1 (centres unmarked) [Compound 29, 2-(1-(6-(1,3,4-Thiadiazol-2-yl)pyrazin-2-yl)-3-fluoropiperidin-3-yl)-5-(2-(trifluoromethoxy)phenyl)-1,3,4-thiadiazole]
